Key:
Assay type in all cases: cell-based
mouse Pan T cells [1] = experiment: mTcell assay, cAMP, agonist NECA
From the text: (§1) Adenosine (Ado) in tumor microenvironment can inhibit T cell activity by signaling through A2A receptors and suppress cytokine secretion by T cells. […] Potential A2A antagonists or A2A/A2B dual antagonists can rescue T cells from this inhibition. Herein, we describe the in vitro system we established using Pan T cells from mouse spleens to screen potential A2A antagonists or A2A/A2B dual antagonists for their activity. The method described involves the use of CD3/CD28 pre-coated beads to stimulate Pan T cells purified from mouse splenocytes, combined with the addition of A2A agonist along with potential A2A or A2A/A2B dual antagonists to evaluate potentiation of T cell cytokine production.
Pan T-cells are isolated from black 6 mice by manual dissociation and purified using a Miltenyi Pan T-cell isolation kit. The isolated T-cells are activated in 96 well plates for 48 hours using anti-CD3/CD28 beads in T-cell proliferation media.
After 48 hours, the T-cells are pooled, counted and suspended in serum free media containing 0.1% BSA. The cells are plated at 50,000 cells per well in 10 ul of media and incubated for 2 hours at 37° C. Test compounds are dispensed into the wells at a 10-point dose response, starting at a concentration of 10 uM. […] The plates are incubated for 30 minutes at 37° C. and assayed for cAMP levels using the Cisbio cAMP Dynamic2 reagent kit by adding 10 ul of the kit reagents to each well. The plates are incubated for 1 hour at room temperature and the HTRF signal is read on an Envision plate reader. The raw data is analyzed in Genedata Screener and the resulting data is loaded into the database.

human A1 receptor = target: T1, human A1 receptor (Homo sapiens, UniProt P30542); experiment: Functional A1 receptor activity, recombinant CHO cells, cAMP (HTRF), forskolin, agonist CPA; settings: recombinant CHO cells, forskolin, agonist CPA; read-out: Functional A1 receptor activity, CHO, cAMP, IC50
T1 construct: expressed in transfected cells; host or cells: CHO
T1 sequence (P30542 1-326): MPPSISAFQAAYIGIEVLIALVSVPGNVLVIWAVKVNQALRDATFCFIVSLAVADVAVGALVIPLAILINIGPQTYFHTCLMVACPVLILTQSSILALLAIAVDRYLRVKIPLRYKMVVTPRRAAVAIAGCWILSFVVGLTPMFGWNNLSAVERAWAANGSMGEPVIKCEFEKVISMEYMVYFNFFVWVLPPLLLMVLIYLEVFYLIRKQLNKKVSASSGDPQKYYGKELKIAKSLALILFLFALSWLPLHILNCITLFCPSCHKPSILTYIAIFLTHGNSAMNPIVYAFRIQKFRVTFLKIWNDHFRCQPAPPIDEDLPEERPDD
In short: (§2)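 Recombinant CHO lines carrying either receptor receive forskolin, compound and the matching agonist, CPA or IB-MECA. After 30 min, HTRF reagents are added and cAMP is quantified. Values are normalized to inhibitor and neutral DMSO controls, then fitted.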

human T cells = experiment: hTcell data, IL-2 (human T cells, IL-2 readout; method not given); settings: compounds of the present invention
human A2A receptor [2] = target: T2, human A2A receptor (Homo sapiens, UniProt P29274); experiment: Functional A2A receptor activity, recombinant HEK293 cells, cAMP (HTRF), agonist NECA; parameters: expressed in transfected cells; host or cells: HEK293; settings: read-out: Functional A2A receptor activity, HEK293, cAMP, IC50
In short: (§3)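 Cells were seeded, then treated with forskolin, test compound and agonist. After a 30 min incubation, HTRF detection reagents were added and intracellular cAMP was read. Values were scaled between an inhibitor control and DMSO before fitting.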

human A3 receptor = target: T3, human A3 receptor (Homo sapiens, UniProt P0DMS8); experiment: Functional A3 receptor activity, recombinant CHO cells, cAMP (HTRF), forskolin, agonist IB-MECA; settings: recombinant CHO cells, forskolin, agonist IB-MECA; read-out: Functional A3 receptor activity, CHO, cAMP, IC50
T3 construct: expressed in transfected cells; host or cells: CHO
T3 sequence (P0DMS8 1-318): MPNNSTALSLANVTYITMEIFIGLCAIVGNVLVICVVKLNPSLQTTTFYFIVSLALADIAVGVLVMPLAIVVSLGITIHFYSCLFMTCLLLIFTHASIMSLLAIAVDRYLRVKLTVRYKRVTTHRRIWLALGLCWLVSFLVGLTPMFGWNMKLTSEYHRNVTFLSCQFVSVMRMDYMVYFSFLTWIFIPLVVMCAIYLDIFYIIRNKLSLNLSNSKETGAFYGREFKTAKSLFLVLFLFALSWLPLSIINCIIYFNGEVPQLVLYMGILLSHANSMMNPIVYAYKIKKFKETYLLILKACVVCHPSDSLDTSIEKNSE
In short: as §2

human A2A receptor [3] = target: T2, human A2A receptor; experiment: Human T cells, endogenous A2A receptor, cAMP, agonist NECA; settings: read-out: hTcell data, cAMP, IC50
In short: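 Pan T cells isolated from fresh human blood PBMC, endogenously expressing Gs-coupled A2A, treated with compounds. Cellular cAMP measured by HTRF after 1 h; data normalized to inhibitor control and DMSO neutral control, then curve-fitted.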

human A2B receptor = target: T4, human A2B receptor (Homo sapiens, UniProt P29275); experiment: Functional A2B receptor activity, recombinant HEK293 cells, cAMP (HTRF), agonist NECA; settings: read-out: Functional A2B receptor activity, HEK293, cAMP, IC50
T4 construct: expressed in transfected cells; host or cells: HEK293
T4 sequence (P29275 1-332): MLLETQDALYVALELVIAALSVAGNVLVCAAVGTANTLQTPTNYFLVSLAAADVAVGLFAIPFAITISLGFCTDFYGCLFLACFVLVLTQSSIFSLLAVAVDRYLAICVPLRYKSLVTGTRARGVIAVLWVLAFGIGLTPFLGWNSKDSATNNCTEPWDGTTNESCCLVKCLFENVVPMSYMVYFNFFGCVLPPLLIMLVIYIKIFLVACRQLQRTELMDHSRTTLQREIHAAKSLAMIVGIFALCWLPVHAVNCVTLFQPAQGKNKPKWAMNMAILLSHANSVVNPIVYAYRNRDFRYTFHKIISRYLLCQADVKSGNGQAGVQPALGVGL
In short: as §3

mouse Pan T cells [4] = experiment: mTcell assay, IL-2, rescue of cytokine secretion, agonist NECA; settings: 24 h
From the text: as §1
Briefly, mouse Pan T cells are purified from spleens of BALB/c mice using Pan T cell isolation kit Mouse II (MACS Miltenyi biotech Cat # Order no. 130-095-130) according to manufacturer's protocol. The purified T cells are seeded in Nunc™ 96-Well Polystyrene Round Bottom Microwell Plates in RPMI medium with 10% heat inactivated fetal bovine serum. The cells are rested at 37° C. for 1 h before activating with CD3/CD28 pre-coated beads (Dynabeads™ Mouse T-Activator CD3/CD28; Cat #11456D). After 30 min the cells are treated with varying doses of test antagonist(s). […] After 24 h incubation IL-2 levels in the supernatants are measured by ELISAs according to manufacturer's protocol (R&D systems Cat #DY402 (IL-2)). Once the concentrations are calculated, the difference of cytokine concentration of DMSO control and agonist alone control is calculated and the percentage of rescue by each concentration of antagonist is calculated by using Microsoft Excel. These percentages of cytokine rescue in a dose dependent manner of antagonist is plotted in GraphPad Prism software and IC50 is calculated.

T2 sequence (P29274 whole entry): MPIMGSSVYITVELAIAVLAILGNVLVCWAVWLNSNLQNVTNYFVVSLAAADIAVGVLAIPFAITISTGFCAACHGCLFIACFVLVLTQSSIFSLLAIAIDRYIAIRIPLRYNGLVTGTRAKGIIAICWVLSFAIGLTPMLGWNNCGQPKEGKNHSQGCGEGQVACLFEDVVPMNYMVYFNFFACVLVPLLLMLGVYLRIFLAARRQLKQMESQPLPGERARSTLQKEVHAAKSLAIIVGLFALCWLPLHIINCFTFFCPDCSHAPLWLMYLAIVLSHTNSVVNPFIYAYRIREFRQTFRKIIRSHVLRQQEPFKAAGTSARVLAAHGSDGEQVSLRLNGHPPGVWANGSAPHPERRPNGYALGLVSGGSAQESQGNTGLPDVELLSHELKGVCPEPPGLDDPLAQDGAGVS

COc1nc(F)c(N2CCOCC2)c2sc(NC(=O)c3ccc(-c4nnn[nH]4)cc3)nc12 [Compound 6, N-(6-Fluoro-4-methoxy-7-morpholin-4-yl-thiazolo[4,5-c]pyridin-2-yl)-4-(1H-tetrazol-5-yl)-benzamide]
IC50 (mouse Pan T cells [1]; Mus musculus, T-cell): < 100 nM
IC50 (human A1 receptor): > 1000 nM
IC50 (human T cells; T-cell): < 10 nM
IC50 (human A2A receptor [2]): < 10 nM
IC50 (human A3 receptor): < 1000 nM
IC50 (human A2A receptor [3]): < 100 nM
IC50 (human A2B receptor): < 10 nM

COc1nc(F)c(N2CCOCC2)c2sc(NC(=O)N3CC[C@@]4(CCCOC4)C3)nc12 [Compound 11, (5S)-N-[6-fluoro-4-methoxy-7-(morpholin-4-yl)-[1,3]thiazolo[4,5-c]pyridin-2-yl]-7-oxa-2-azaspiro[4.5]decane-2-carboxamide]
IC50 (human A1 receptor): > 1000 nM
IC50 (human T cells; T-cell): < 10 nM
IC50 (human A2A receptor [2]): < 10 nM
IC50 (human A3 receptor): > 1000 nM
IC50 (human A2A receptor [3]): < 10 nM
IC50 (mouse Pan T cells [4]; Mus musculus, T-cell): < 100 nM
IC50 (human A2B receptor): < 10 nM

COc1nc(F)c(-c2ccccc2)c2sc(NC(=O)N3CC[C@]4(CCCOC4)C3)nc12 [Compound 12, (R)-7-Oxa-2-aza-spiro[4.5]decane-2-carboxylic acid (6-fluoro-4-methoxy-7-phenyl-thiazolo[4,5-c]pyridin-2-yl)-amide]
IC50 (mouse Pan T cells [1]; Mus musculus, T-cell): < 10 nM
IC50 (human A1 receptor): < 1000 nM
IC50 (human T cells; T-cell): < 10 nM
IC50 (human A2A receptor [2]): < 10 nM
IC50 (human A3 receptor): > 1000 nM
IC50 (human A2A receptor [3]): < 10 nM
IC50 (mouse Pan T cells [4]; Mus musculus, T-cell): < 10 nM
IC50 (human A2B receptor): < 10 nM

COc1ncc(C2=CCOCC2)c2sc(NC(=O)N3CCC4(CCCOC4)C3)nc12 (stereo not drawn) [Compound 15, 7-Oxa-2-aza-spiro[4.5]decane-2-carboxylic acid [7-(3,6-dihydro-2H-pyran-4-yl)-4-methoxy-thiazolo[4,5-c]pyridin-2-yl]-amide]
IC50 (human A1 receptor): > 1000 nM
IC50 (human T cells): < 10 nM
IC50 (human A2A receptor [2]): < 10 nM
IC50 (human A3 receptor): > 1000 nM
IC50 (mouse Pan T cells [4]; mouse Pan T cells, CD3/CD28 activated, NECA 1 μM, IL-2 rescue): < 100 nM
IC50 (human A2B receptor): < 10 nM

COc1nc(F)c(N2CCOCC2)c2sc(NC(=O)N3CC[C@]4(CCOC4)C3)nc12 [Compound 19, (5S)-N-[6-fluoro-4-methoxy-7-(morpholin-4-yl)-[1,3]thiazolo[4,5-c]pyridin-2-yl]-2-oxa-7-azaspiro[4.4]nonane-7-carboxamide]
IC50 (mouse Pan T cells [1]; Mus musculus, T-cell): < 100 nM
IC50 (human A1 receptor): > 1000 nM
IC50 (human T cells; T-cell): < 100 nM
IC50 (human A2A receptor [2]): < 10 nM
IC50 (human A3 receptor): > 1000 nM
IC50 (human A2A receptor [3]): < 10 nM
IC50 (mouse Pan T cells [4]; Mus musculus, T-cell): < 100 nM
IC50 (human A2B receptor): < 100 nM

COc1nc(F)c(C2CCOCC2)c2sc(NC(=O)c3ccc(C(=O)N(C)C)cc3)nc12 [Compound 20, N-[6-Fluoro-4-methoxy-7-(tetrahydro-pyran-4-yl)-thiazolo[4,5-c]pyridin-2-yl]-N′,N′-dimethyl-terephthalamide]
IC50 (mouse Pan T cells [1]; Mus musculus, T-cell): < 100 nM
IC50 (human A1 receptor): > 1000 nM
IC50 (human T cells; T-cell): < 10 nM
IC50 (human A2A receptor [2]): < 10 nM
IC50 (human A3 receptor): > 1000 nM
IC50 (human A2A receptor [3]): < 10 nM
IC50 (mouse Pan T cells [4]; Mus musculus, T-cell): < 100 nM
IC50 (human A2B receptor): < 10 nM

COc1ncc(C2=CCOCC2)c2sc(NC(=O)N3CC[C@]4(CCCOC4)C3)nc12 [Compound 24, (R)-7-Oxa-2-aza-spiro[4.5]decane-2-carboxylic acid [7-(3,6-dihydro-2H-pyran-4-yl)-4-methoxy-thiazolo[4,5-c]pyridin-2-yl]-amide]
IC50 (mouse Pan T cells [1]; mouse Pan T cells, agonist NECA 1 uM): < 100 nM
IC50 (human A1 receptor): < 1000 nM
IC50 (human T cells): < 10 nM
IC50 (human A2A receptor [2]): < 10 nM
IC50 (human A3 receptor): > 1000 nM
IC50 (human A2A receptor [3]): < 10 nM
IC50 (human A2B receptor): < 100 nM

COc1nc(F)c(C2CCOCC2)c2sc(NC(=O)N3CC[C@]4(CCOC4)C3)nc12 [Compound 38, (5S)-N-[6-fluoro-4-methoxy-7-(oxan-4-yl)-[1,3]thiazolo[4,5-c]pyridin-2-yl]-2-oxa-7-azaspiro[4.4]nonane-7-carboxamide]
IC50 (mouse Pan T cells [1]; Mus musculus, T-cell): < 10 nM
IC50 (human A1 receptor): > 1000 nM
IC50 (human A2A receptor [2]): < 10 nM
IC50 (human A3 receptor): > 1000 nM
IC50 (human A2A receptor [3]): < 10 nM
IC50 (mouse Pan T cells [4]; Mus musculus, T-cell): < 100 nM
IC50 (human A2B receptor): < 10 nM

COc1ncc(-c2cccs2)c2sc(NC(=O)N3CCC4(CCOCC4)C3)nc12 [Compound 47, 8-Oxa-2-aza-spiro[4.5]decane-2-carboxylic acid (4-methoxy-7-thiophen-2-yl-thiazolo[4,5-c]pyridin-2-yl)-amide]
IC50 (mouse Pan T cells [1]; Mus musculus, T-cell): < 100 nM
IC50 (human A1 receptor): > 1000 nM
IC50 (human A2A receptor [2]): < 10 nM
IC50 (human A3 receptor): > 1000 nM
IC50 (human A2A receptor [3]): < 10 nM
IC50 (mouse Pan T cells [4]; Mus musculus, T-cell): < 100 nM
IC50 (human A2B receptor): < 10 nM

COc1cccc(-c2cnc(OC)c3nc(NC(=O)N4CCC5(CCOCC5)C4)sc23)c1 [Compound 54, 8-Oxa-2-aza-spiro[4.5]decane-2-carboxylic acid [4-methoxy-7-(3-methoxy-phenyl)-thiazolo[4,5-c]pyridin-2-yl]-amide]
IC50 (mouse Pan T cells [1]; Mus musculus, T-cell): < 10 nM
IC50 (human A1 receptor): > 1000 nM
IC50 (human A2A receptor [2]): < 10 nM
IC50 (human A3 receptor): > 1000 nM
IC50 (human A2A receptor [3]): < 10 nM
IC50 (mouse Pan T cells [4]; Mus musculus, T-cell): < 100 nM
IC50 (human A2B receptor): < 10 nM

COc1ncc(C2=CCOCC2)c2sc(NC(=O)c3ccc(C(=O)N(C)C)cc3)nc12 [Compound 61, N4-[7-(3,6-dihydro-2H-pyran-4-yl)-4-methoxy-[1,3]thiazolo[4,5-c]pyridin-2-yl]-N1,N1-dimethylbenzene-1,4-dicarboxamide]
IC50 (human A1 receptor): < 1000 nM
IC50 (human A2A receptor [2]): < 10 nM
IC50 (human A3 receptor): > 1000 nM
IC50 (human A2A receptor [3]): < 10 nM
IC50 (mouse Pan T cells [4]; Mus musculus, T-cell): < 100 nM
IC50 (human A2B receptor): < 10 nM

Reference: patent US12344623B2, “Thiazolopyridine derivatives as adenosine receptor antagonists” (Merck Patent GmbH, priority 2019, dated 2025)
